# “And” between values parts separate entries of the source, which are not always exact repeats. Equal values may be shown once.
# How the values were obtained:
# [1] = parameters: method as in ToxCast (comptox.epa.gov dashboard); conditions: ref ToxCast (comptox.epa.gov dashboard); cited from earlier work
# rat hepatocytes = assay: MTT assay in cultivated rat hepatocytes; assay type: cell-based; conditions: up to 1000 µM
# CYP 2B/3A = assay: BROD assay, lung microsomes; assay type: in vivo, rat; conditions: male rats
# Experimental: (§1) The alkoxyresorufin dealkylase (AROD) assays were based on the method by Burke et al. ([1994]).
# (§2) The frozen livers and lungs of the NVP-treated male Wistar rats were thawed and washed with isotonic (0.9%) NaCl solution. The tissues were ice-cooled homogenized (1 g tissue: 3 mL 0.25 M saccharose in 1 mM disodium EDTA, pH 7.4) and centrifuged (9000 g, 15 min, 4 °C). The supernatant fraction was centrifuged (100 000 g, 60 min, 4 °C). The resulting supernatant fraction was used for the palmitoyl-CoA-oxidase assay described further down. The pellet was taken up in 150 mM aqueous KCl solution, recentrifuged (100 000 g, 60 min, 4 °C) and the pellet taken up in 1 mL/g liver or 0.5 mL/g lung resuspension buffer (1 mM GSH, 1 mM disodium EDTA, 4 mM MgCl2, 0.1 M KH2PO4, pH 7.5 and 4% glycerol). Aliquots were stored at − 80 °C.
# (§3) For determination of the enzyme activities in triplicates, 85 µL master mix (100 mM TrisHCl pH 7.5, 2 mM 5’AMP, 5 mM G-6-P, 10 U G-6-P-DH, 10 mM Dicumarol, 10 mM MgCl2, either 2 µM EROD or 10 µM PROD or 5 µM BROD) was added to 10 µL microsomal fraction (1 mg protein/mL). The reaction was started by the addition of 5 µL 2 mM NADPH (dissolved in 100 mM TrisHCl pH 7.5) followed by incubation at 37 °C for 16 min. The activity was determined by measuring the increase of the fluorescence (excitation at 550 nm, emission at 585 nm) due to resorufin formation compared with resorufin standards, which had been prepared by dissolving tenfold concentrated solutions in DMSO, which were then diluted tenfold in 100 mM TrisHCl pH 7.5.
# [2] = system: L5178Y mouse lymphoma cells; parameters: method as in MAK [1994]; conditions: ref MAK [1994]; cited from earlier work
# rat lung cells = assay: Trypan Blue viability of the single cell suspension, lung; assay type: in vivo; conditions: lung, 5 days, individual animals
# Experimental: The organ parts (see above) were washed in mincing buffer (50 mM EDTA in HBSS [without Ca^2+ and Mg^2+] pH 7.5: DMSO 9:1 (v/v), the latter added shortly before use, stored at 4 °C), cut into 1 to 2-mm pieces in ice-cold mincing buffer and transferred to a cell sieve with 70-µm pores. The viability of the cell suspension was evaluated by the Trypan Blue Assay (Strober [2001]).
# Salmonella strains = conditions: three independent tests in four Salmonella strains; ref MAK [1994]; cited from earlier work
# CYP1A = assay: EROD assay, liver microsomes of NVP-treated rats (AhR marker); assay type: in vivo, rat; conditions: male rats
# Experimental: as §1, §2, §3
# estrogen receptor α = system: estrogen receptor α; parameters: method as in ToxCast (comptox.epa.gov dashboard); conditions: ref ToxCast (comptox.epa.gov dashboard); cited from earlier work
# [3] = system: palmitoyl CoA oxidase/acyl CoA oxidase; assay: Cyanide-insensitive palmitoyl-CoA oxidase assay, liver cytosol (PPARα marker); assay type: in vivo, rat; conditions: male rats
# Experimental: Cyanide-insensitive palmitoyl-CoA oxidase was determined essentially according to the method by Lazarow ([1981]), specifically as follows:
# Five µL of the liver cytosol (prepared as described in the preceding chapter “Aryl hydrocarbon receptor”) derived from the NVP-treated (and untreated control) male rats were mixed in a centrifugal analyzer Cobas Fara II (Hoffmann La Roche) with 250 µL reaction mixture consisting of 28.2 mL 50 mM Tris buffer pH 8.01, 150 µL 2% Triton-X-100, 300 µL 1 mM FAD, 300 µL 10 mM CoA, 150 µL 1.5% BSA, 90 µL 0.33 mM dithiothreitol, 300 µL 20 mM NAD and after homogenization 300 µL 100 mM KCN. The reaction was started by adding 5 µL of 5.03 µM palmitoyl-CoA aqueous solution. The increase of the absorption at ʎ = 334 nm due to NADH formation was determined and translated to palmitoyl-CoA oxidase U/L by the Cobas Fara II software.
# CYP2B [4] = assay: PROD inhibition control in Aroclor 1254-induced rat liver microsomes; assay type: biochemical; conditions: for PROD enzyme activity: 0 µM control 78.9 ± 3.2
# Experimental: as §3
# As a method control the described AROD assay was performed with microsomal fractions derived from liver and lung of male Wistar rats which had been treated i.p. for 5 days with aroclor 1254 (500 mg/kg bw). These control assays were performed in presence of 1 μM, 10 μM or 100 μM NVP, respectively, in order to check for potential interactions of NVP with the substrate turnover in the AROD assay.
# CYP2B [5] = assay: PROD assay, liver microsomes (CAR marker); assay type: in vivo, rat; conditions: male rats
# Experimental: as §1, §2, §3
# Drosophila melanogaster = conditions: ref Knaap et al. [1985]; cited from earlier work
# rat liver = assay: Non-protein-bound sulfhydryl groups (NPSH) in liver homogenate supernatant; assay type: in vivo; conditions: for NPSH, individual animal / NPSH, group (mean ± SD): rat liver; for NPSH, group (mean ± SD): n = 6
# Experimental: Determination of NPSH was performed according to the principle described by Ellmann (1958, 1959) in the liver homogenate supernatant fraction of the NVP-exposed male Wistar rats. […] The supernatant fraction was stored in aliqots at − 80 °C. Prior to assay, the samples were diluted fourfold and to 100 µL of the diluted sample 200 µL Tris/EDTA (1 M/5 mM, pH 8.9) buffer was added. Determinations were performed in triplicates. […] Measurements were performed 5 min thereafter at λ = 412 nm.
# Wistar rats = assay: Clinical observations and body weight during 5-day inhalation
# Experimental: Eight-week-old male and female Wistar Crl:WI (Han) rats were obtained from Charles River Laboratories, Sulzfeld, Germany and acclimatized for 10 days. They were kept at 20–24 °C at a humidity of 30–70% in groups of six animals in polysulfone cages (Tecniplast) with free access to water and feed (10 mm pellets, Provimi Kliba, Kaiseraugst, Switzerland).
# The animals were acclimatized to the whole-body exposure chambers for 2 days using the inhalation stream without the test substance. […] Animals were weighed before the 2-day acclimatation to the exposure chambers and subsequently before and after the exposure to the test substance. Animals were killed in the morning after the last exposure period to perform the examinations described further down.
# For the inhalation experiments, two animals per cage (DK III, Becker & CO., Castrop-Rauxel, Germany) were kept in the glass–steel inhalation chambers (volume approximately 200 L) without access to feed and water. For each test dose a constant amount of NVP was pumped by continuous infusion pumps PHD Ultra (Havard Apparatus, Holliston) to an evaporator (Glasverdampfer BASF, Ludwigshafen, Germany; Thermostat Julabo Labortechnik, Seelbach, Germany). The thus generated vapor was combined with air and introduced into the exposure chamber.
# rat liver cells = conditions: rats, ref BASF [2011], cited from earlier work
smiles,measurement,setting,value
"C=CN1CCCC1=O [NVP, N-vinylpyrrolidone]",Active in vitro assays in ToxCast,[1],10 out of 847
same,Cytotoxicity in MTT assay,rat hepatocytes,no cytotoxicity observed
same,BROD activity in lung microsomes,CYP 2B/3A; 5 ppm,22.9 ± 11.0 pmol/min/mg protein
same,BROD activity in lung microsomes,CYP 2B/3A; 10 ppm,25.5 ± 19.8 pmol/min/mg protein
same,BROD activity in lung microsomes,CYP 2B/3A; 20 ppm,82.1 ± 76.8 pmol/min/mg protein
same,Mammalian cell mutation tests (HGPRT and TK locus) result,[2],negative
same,Individual viability (%),"rat lung cells; female, Comet with FPG (Table 11), 20 ppm inhalation",95%
same,Individual viability (%),"rat lung cells; female, no FPG, 20 ppm inhalation",96%
same,Individual viability (%),"rat lung cells; male, Comet with FPG (Table 10), 10 ppm inhalation",93%
same,Individual viability (%),"rat lung cells; male, no FPG, 10 ppm inhalation",93%
same,Ames Salmonella back mutation test result,Salmonella strains,negative
same,Liver microsomal EROD activity,CYP1A; 5 ppm,20.5 ± 3.6 pmol/min/mg protein
same,Liver microsomal EROD activity,CYP1A; 10 ppm,22.0 ± 5.8 pmol/min/mg protein
same,Liver microsomal EROD activity,CYP1A; 20 ppm,16.9 ± 6.4 pmol/min/mg protein
same,Effect on estrogen receptor α,estrogen receptor α,activates
same,Cyanide-insensitive palmitoyl CoA oxidase activity in liver cytosol,[3]; 5 ppm,5.43 ± 0.71 nmol/min/mg protein
same,Cyanide-insensitive palmitoyl CoA oxidase activity in liver cytosol,[3]; 10 ppm,5.47 ± 0.71 nmol/min/mg protein
same,Cyanide-insensitive palmitoyl CoA oxidase activity in liver cytosol,"[3]; 20 ppm, statistically significantly reduced",4.68 ± 0.71 nmol/min/mg protein
same,PROD enzyme activity,CYP2B [4]; 1 µM NVP,88.6 ± 3.3 pmol/min/mg protein
same,PROD enzyme activity,CYP2B [4]; 10 µM NVP,92.1 ± 6.0 pmol/min/mg protein
same,PROD enzyme activity,CYP2B [4]; 100 µM NVP,94.6 ± 2.3 pmol/min/mg protein
same,Inhibition of PROD activity,"CYP2B [4]; 1, 10 or 100 µM NVP",does not lead to inhibition
same,Liver microsomal PROD activity,CYP2B [5]; 5 ppm,12.4 ± 1.9 pmol/min/mg protein
same,Liver microsomal PROD activity,CYP2B [5]; 10 ppm,16.5 ± 4.3 pmol/min/mg protein
same,Liver microsomal PROD activity,CYP2B [5]; 20 ppm,10.0 ± 2.8 pmol/min/mg protein
same,Sex-linked recessive lethal test result,Drosophila melanogaster,negative
same,"GSH concentration (NPSH assay), range","rat liver; NVP-exposed male rats, 5-20 ppm",3.72–5.23 µmol/g liver
same,"NPSH, individual animal","rat liver; 5 ppm NVP inhalation, animals 7-12","5,13 µmol/g liver and 4,59 µmol/g liver and 4,10 µmol/g liver and 4,86 µmol/g liver and 3,99 µmol/g liver"
same,"NPSH, group (mean ± SD)",rat liver; 5 ppm NVP inhalation,4.42 ± 0.52 µmol/g liver
same,"NPSH, individual animal","rat liver; 10 ppm NVP inhalation, animals 13-18",4.11 µmol/g liver and 4.72 µmol/g liver and 4.83 µmol/g liver and 4.57 µmol/g liver and 3.76 µmol/g liver
same,"NPSH, group (mean ± SD)",rat liver; 10 ppm NVP inhalation,4.23 ± 0.58 µmol/g liver
same,"NPSH, individual animal","rat liver; 20 ppm NVP inhalation, animals 19-24",4.47 µmol/g liver and 5.23 µmol/g liver and 3.72 µmol/g liver and 3.88 µmol/g liver and 4.67 µmol/g liver and 4.64 µmol/g liver
same,"NPSH, group (mean ± SD)",rat liver; 20 ppm NVP inhalation,4.44 ± 0.55 µmol/g liver
same,Mortality during the 5-day exposure,"Wistar rats; 5, 10, 20 ppm inhalation, male and female",None of the exposed rats died
same,Body weight increase,"Wistar rats; 10 ppm, males, p ≤ 0.05",reduced
same,"Slightly increased salivation, animals affected",Wistar rats; day 2 of exposure,1 of 48
same,"Red nose effluent, animals affected",Wistar rats; days 4 or 5 of exposure,5 of 48
same,Concentration from which liver cell proliferation is significantly increased,rat liver cells; inhalation for 7 days,≥ 1 ppm
same,Concentration giving a significant increase of liver cell proliferation (zones 3 and 2),rat liver cells; inhalation for 28 days,0.5 ppm

# — publication PMC8536644, “Enigmatic mechanism of the N-vinylpyrrolidone hepatocarcinogenicity in the rat” (Archives of Toxicology, 2021)
